Laboratory results reported in US11852632B2, “Cancer test device, cancer test method, and staining agent for use in cancer test” (MIE UNIVERSITY, priority 2016, dated 2023).
Like-named read-outs stand apart in the source and are kept apart here.

Legend:
cancer tissue = assay type: in vivo, laboratory mouse; conditions: mouse; for depth to which the tissue is stained: in vivo
Experimental: (§1) A laboratory mouse was used as the living body. […] The staining period was set at 5 minutes.

healthy mucosa tissue = test system: healthy mucosa tissue; design: species or system laboratory mouse; conditions: mouse, in vivo
Experimental: as §1

[1] = biological target: T1, cancer-related gene product STAT3 (Mus musculus, UniProt P42227); assay: Curcumin living body staining compared with anti-STAT3 antibody immunostaining of the same site, confocal laser microscope; assay type: in vivo, laboratory mouse; conditions: 1%-curcumin then 1%-Acid Red, FIG. 4A (b) versus (e)
T1 construct: used to stain the expressed STAT3-family cancer-related gene product in the living cell; from tissue; host or cells: inner wall of the large intestine of a living laboratory mouse (cancerous and healthy sites)
T1 sequence (P42227 whole entry): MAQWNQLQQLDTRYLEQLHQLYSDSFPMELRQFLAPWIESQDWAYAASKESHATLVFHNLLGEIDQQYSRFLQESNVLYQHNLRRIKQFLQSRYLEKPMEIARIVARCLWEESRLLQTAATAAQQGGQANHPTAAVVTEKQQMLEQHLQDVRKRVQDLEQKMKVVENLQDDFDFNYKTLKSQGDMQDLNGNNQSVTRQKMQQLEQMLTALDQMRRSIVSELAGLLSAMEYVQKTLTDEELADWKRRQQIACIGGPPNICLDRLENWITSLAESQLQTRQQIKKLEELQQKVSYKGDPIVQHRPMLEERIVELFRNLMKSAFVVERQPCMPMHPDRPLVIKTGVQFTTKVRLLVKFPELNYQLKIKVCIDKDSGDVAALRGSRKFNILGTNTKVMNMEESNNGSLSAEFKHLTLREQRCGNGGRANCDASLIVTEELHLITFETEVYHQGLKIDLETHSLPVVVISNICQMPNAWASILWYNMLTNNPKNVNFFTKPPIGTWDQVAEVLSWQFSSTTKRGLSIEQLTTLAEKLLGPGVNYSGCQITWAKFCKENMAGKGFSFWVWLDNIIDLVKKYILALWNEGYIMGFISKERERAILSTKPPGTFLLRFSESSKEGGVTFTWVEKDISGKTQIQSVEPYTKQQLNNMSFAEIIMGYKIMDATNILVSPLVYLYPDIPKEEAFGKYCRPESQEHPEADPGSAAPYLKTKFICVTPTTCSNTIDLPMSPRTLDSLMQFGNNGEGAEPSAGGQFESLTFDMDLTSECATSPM
Text: The sections (a), (b), and (c) of FIG. 4A are images of a sample that is a double-stained living cell group of the inner wall of the intestine of a living laboratory mouse produced by staining the inner wall of the intestine with a 1%-curcumin solution and then staining the curcumin-stained inner wall with 1%-Acid Red (C27H29N2NaO7S2). A confocal laser microscope was used as the image device.
It is therefore determined that the site containing the cell group heavily stained with the curcumin stain is ultra-early cancer. The three panels (d), (e), and (f) in the lower row of FIG. 4A show images of the same site of the large intestine of the digestive tract of the laboratory mouse imaged in the same living body staining as that in the upper row, fixed with formalin, and then imaged in the fluorescence antibody technique. […] The section (f) is a (d)+(e) superimposed image.
The sections (d), (e), and (f) of FIG. 4A are produced by fixing the intestine of the laboratory mouse described above with formalin, then immunostaining the intestine with an anti-STAT3 antibody that bonds to the STAT3-family cancer-related gene product, and imaging the same location as those surrounded by the white frames in the sections (a), (b), and (c). In the sections (d) to (f), the samples were fixed with formalin and therefore slightly shrunk.

Row | Compound | permeability in the cancer tissue compared with the healthy mucosa tissue (cancer tissue) | depth to which the tissue is stained (cancer tissue) | depth to which the tissue is stained (healthy mucosa tissue) | depth to which the tissue is stained (cancer tissue; 5 min) | depth to which the tissue is stained (healthy mucosa tissue; 5 min) | distribution of heavily stained cell group versus cell group with STAT3 highly expressed (anti-STAT3 antibody) [1]
1 | CCN(CC)c1ccc2c(-c3ccc(S(=O)(=O)[O-])cc3S(=O)(=O)[O-])c3ccc(=[N+](CC)CC)cc-3oc2c1.[Na+] [Acid Red] | lower permeability | about 40 μm | about 70 μm | – | – | –
2 | COc1cc(/C=C/C(=O)CC(=O)/C=C/c2ccc(O)c(OC)c2)ccc1O [curcumin] | higher permeability | – | – | about 40 μm | about 20 μm | coincides with the distribution of the cell group shown in the section (e) in the lower row and having the cancer-related gene product STAT3 highly expressed
